The target in one assay is T1, JAK3-JH1 (Homo sapiens, UniProt P52333).
T1 construct: using a recombinant purified His or GST-tagged catalytic domain for each enzyme; purchased Carna biosciences 08-046
The assay is described as follows: HTRF-based selectivity assay, JAK3 catalytic domain. The following applies: kinase domain (JH1), 2.12 μM ATP. The format is biochemical. Here is the method: (§1) The ability of compounds to inhibit the activity of JAK1, JAK2, JAK3 and TYK2 is measured using a recombinant purified His or GST-tagged catalytic domain for each enzyme (JAK1, JAK2 and TYK2 are generated in-house; JAK3 was purchased from Carna biosciences, Cat #08-046) in an HTRF format biochemical assay. The reactions employs a commercial peptide substrate from Cisbio (Cat #62TK0PEC). The basic assay protocol is as follows: first, 2.5 μL of diluted compounds (4×) in DMSO are dispensed into a 384-well Optiplate. Next, 2.5 μL of enzyme (final concentrations for enzymes are: TYK2-700 ng/mL, JAK1-80.6 ng/ml, JAK2-2.1 ng/ml and JAK3-171.8 ng/mL) is added and incubated at RT for 5-20 min. Finally, 5 μl of mixture of 2×ATP [Final concentration 20 μM for TYK2, 21.43 μM for JAK1, 14.7 μM for JAK2 and 2.12 μM for JAK3]+2× Substrate [Final concentration 217 nM for TYK2, 454.7 nM for JAK1, 200 nM for JAK2 and 257.4 nM for JAK3] is added to 384 well Optiplate. Composition of Kinase assay buffer used in the assay is as follows: HEPES 50 mM, EGTA 1 mM, MgCl2 10 mM, DTT 2 mM, Tween-20 0.01% and water. Then the plates are shaken and then incubated at 26.5° C. for 60 min.

In the next assay the target is T2, JAK1-JH1 (Homo sapiens, UniProt P23458).
T2 construct: using a recombinant purified His or GST-tagged catalytic domain for each enzyme; made in house
Nature of the assay: HTRF-based selectivity assay, JAK1 catalytic domain. The format is biochemical. The following applies: kinase domain (JH1), 21.43 μM ATP. As to the method:
as §1

In a further assay the target is T3, TYK2-JH1 (Homo sapiens, UniProt P29597).
T3 construct: using a recombinant purified His or GST-tagged catalytic domain for each enzyme; made in house
T3 sequence (P29597 897-1176 limits assumed): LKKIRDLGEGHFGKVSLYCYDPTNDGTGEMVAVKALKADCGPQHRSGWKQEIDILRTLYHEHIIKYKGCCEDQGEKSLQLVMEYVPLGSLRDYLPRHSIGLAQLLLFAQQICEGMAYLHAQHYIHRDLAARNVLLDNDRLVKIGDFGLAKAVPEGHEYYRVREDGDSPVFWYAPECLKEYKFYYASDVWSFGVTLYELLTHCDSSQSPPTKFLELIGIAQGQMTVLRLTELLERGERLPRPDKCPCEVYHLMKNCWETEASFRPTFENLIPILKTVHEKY
Nature of the assay: HTRF-based selectivity assay, TYK2 catalytic domain. The following applies: kinase domain (JH1), 20 μM ATP. The assay is classed as biochemical. As to the method:
as §1

In assay [1] the test system is TYK2 Pseudokinase (JH2). Nature of the assay: HEK-Blue IL-23 reporter assay (SEAP) for profiling TYK2 pseudokinase (JH2) inhibition. The format is cell-based. Particulars: HEK-Blue IL-23 cells, 10 ng/mL human recombinant IL-23, SEAP reporter; read-out: IL23 IC50 (TYK2 inhibitory activity). Here is the method: (§2) HEK-Blue™ IL-23 and IFNα/β cells with a stably-integrated cytokine receptor and STAT3 or STAT1 express STAT-inducible secreted embryonic alkaline phosphatase (SEAP) reporter gene upon cytokine stimulation. These cells are plated in DMEM (Gibco) containing 10% heat-inactivated FBS (Gibco) and 100 U/mL PenStrep (Gibco) at 37° C. under 5% CO2 conditions for 20-22 hours. The cells are then pretreated with serially diluted test compounds for 60 min prior to stimulation with either 10 ng/mL human recombinant IL-23 (Miltenyl Biotech) or 1 ng/mL human recombinant IFNα (InvivoGen) for 22-24 hours for IL-23 or 16-18 h for IFNα. SEAP induction is measured using the QUANTI Blue™ Solution (InvivoGen) according to the manufacturer's instructions.

For assay [2], the system named is HEK-Blue IL-2 reporter cells. Nature of the assay: HEK-Blue IL-2 reporter assay (SEAP) for determining selectivity. The format is cell-based. Particulars: HEK-Blue IL-2 cells, 4 ng/ml human recombinant IL-2, SEAP reporter. As to the method:
(§3) HEK-Blue™ IL-2 and IFNγ reporter cells with a stably-integrated cytokine receptor and STAT5 or STAT1 express STAT-inducible secreted embryonic alkaline phosphatase (SEAP) reporter gene upon cytokine stimulation. These cells were plated in DMEM (Gibco) containing 10% heat-inactivated FBS (Gibco) and 100 U/mL PenStrep (Gibco) at 37° C. under 5% CO2 conditions for 20-22 hours. The cells were then pretreated with serially diluted test compounds for 60 min prior to stimulation with either 4 ng/ml human recombinant IL-2 (Miltenyl Biotech) or 50 ng/ml human recombinant IFNγ (InvivoGen) for 24 hours. SEAP induction was measured using the QUANTI-Blue™ Solution (InvivoGen) according to the manufacturer's instructions.

Assay [3] relates to TYK2 Pseudokinase (JH2). The assay is described as follows: HEK-Blue IFNα/β reporter assay (SEAP) for profiling TYK2 pseudokinase (JH2) inhibition. The assay is classed as cell-based. The following applies: HEK-Blue IFNα/β cells, 1 ng/mL human recombinant IFNα, read-out: IFNα IC50 (TYK2 inhibitory activity). Here is the method:
as §2

Assay [4] deals with HEK-Blue IFNγ reporter cells. Nature of the assay: HEK-Blue IFNγ reporter assay (SEAP) for determining selectivity. The format is cell-based. The following applies: 50 ng/ml human recombinant IFNγ, read-out: IFN-γ IC50 (SEAP selectivity). Here is the method: as §3
Another assay addresses T4, JAK2-JH1 (Homo sapiens, UniProt O60674).
T4 construct: using a recombinant purified His or GST-tagged catalytic domain for each enzyme; made in house
The assay is described as follows: HTRF-based selectivity assay, JAK2 catalytic domain. The assay is classed as biochemical. Particulars: kinase domain (JH1), 14.7 μM ATP. Here is the method: as §1

pIC50: −log10 of the molar value. Some results are limits rather than exact numbers.

T4 sequence (O60674 849-1124 limits assumed): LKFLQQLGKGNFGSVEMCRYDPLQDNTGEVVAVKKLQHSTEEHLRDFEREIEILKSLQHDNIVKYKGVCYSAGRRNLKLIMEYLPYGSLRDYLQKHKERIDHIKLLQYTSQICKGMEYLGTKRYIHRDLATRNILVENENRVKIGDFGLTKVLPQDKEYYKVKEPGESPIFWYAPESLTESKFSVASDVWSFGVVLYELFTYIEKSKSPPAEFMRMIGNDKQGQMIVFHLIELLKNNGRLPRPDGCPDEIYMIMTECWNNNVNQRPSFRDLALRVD
T1 sequence (P52333 822-1111 limits assumed): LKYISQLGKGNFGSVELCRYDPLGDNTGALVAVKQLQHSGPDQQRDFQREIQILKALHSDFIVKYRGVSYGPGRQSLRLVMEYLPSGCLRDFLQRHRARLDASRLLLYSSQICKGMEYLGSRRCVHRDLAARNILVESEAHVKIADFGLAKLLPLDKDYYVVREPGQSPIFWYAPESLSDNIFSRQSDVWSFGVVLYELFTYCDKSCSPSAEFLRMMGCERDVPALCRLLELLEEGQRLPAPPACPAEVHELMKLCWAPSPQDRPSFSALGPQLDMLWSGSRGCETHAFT
T2 sequence (P23458 875-1153 limits assumed): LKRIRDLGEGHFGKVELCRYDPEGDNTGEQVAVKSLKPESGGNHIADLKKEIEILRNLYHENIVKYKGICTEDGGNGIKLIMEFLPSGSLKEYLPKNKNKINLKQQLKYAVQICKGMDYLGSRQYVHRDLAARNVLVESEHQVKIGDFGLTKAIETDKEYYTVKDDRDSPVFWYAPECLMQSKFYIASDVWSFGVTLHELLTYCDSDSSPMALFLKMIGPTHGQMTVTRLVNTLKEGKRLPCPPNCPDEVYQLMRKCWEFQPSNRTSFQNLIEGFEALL

On to `[2H]C([2H])([2H])NC(=O)c1cnc(NC(=O)C2CC2)cc1Nc1cccc2c1N(C)Cc1cncnc1-2` [Compound 4, 6-(cyclopropanecarboxamido)-N-(methyl-d3)-4-((6-methyl-5,6-dihydropyrimido[5,4-c]quinolin-7-yl)amino)nicotinamide], for which the pIC50 was under 6.00 against JAK3-JH1; 6.00 to 6.52 on JAK1-JH1; under 6.00 against TYK2-JH1; over 7.52 in the assay on TYK2 Pseudokinase (JH2) [1]; under 6.00 in assay [2]; over 7.52 with TYK2 Pseudokinase (JH2) [3]. Moreover, the negative-log IC50 (pIC50) (in assay [4]; on JAK2-JH1) was under 6.00 throughout.
`[2H]C([2H])([2H])NC(=O)c1cnc(NC(=O)C2CC2)cc1Nc1cccc2c1N(C)Cc1cc(F)cnc1-2` [Compound 5, 6-(cyclopropanecarboxamido)-4-((3-fluoro-6-methyl-5,6-dihydrobenzo[h][1,6]naphthyridin-7-yl)amino)-N-(methyl-d3)nicotinamide]: the pIC50 at JAK3-JH1 is under 6.00; against JAK1-JH1, under 6.00; against TYK2-JH1, under 6.00; in the assay on TYK2 Pseudokinase (JH2) [1], over 7.52; in assay [2], under 6.00; in the assay with TYK2 Pseudokinase (JH2) [3], over 7.52. Besides, the negative logarithm of the IC50 (pIC50) (in assay [4]; on JAK2-JH1) was under 6.00 throughout.
For the molecule `[2H]C([2H])([2H])NC(=O)c1nnc(NC(=O)C2CC2)cc1Nc1cccc2c1N(C)Cc1cncnc1-2` [Compound 6, 6-(cyclopropanecarboxamido)-N-(methyl-d3)-4-((6-methyl-5,6-dihydropyrimido[5,4-c]quinolin-7-yl)amino)pyridazine-3-carboxamide], the pIC50 is under 6.00 on JAK3-JH1; 6.00 to 6.52 against JAK1-JH1; under 6.00 against TYK2-JH1; over 7.52 in the assay with TYK2 Pseudokinase (JH2) [1]; under 6.00 in assay [2]; over 7.52 in the assay with TYK2 Pseudokinase (JH2) [3]. Besides, the pIC50 was 6.52 to 7.52 in assay [4] and under 6.00 against JAK2-JH1.
For the molecule `[2H]C([2H])([2H])NC(=O)c1nnc(NC(=O)C2CC2)cc1Nc1cccc2c1N(C)Cc1cc(F)cnc1-2` [Compound 7, 6-(cyclopropanecarboxamido)-4-((3-fluoro-6-methyl-5,6-dihydrobenzo[h][1,6]naphthyridin-7-yl)amino)-N-(methyl-d3)pyridazine-3-carboxamide], the pIC50 against JAK3-JH1 is under 6.00; on JAK1-JH1 it was under 6.00; on TYK2-JH1 it was under 6.00; in the assay on TYK2 Pseudokinase (JH2) [1], over 7.52; in assay [2] it was 6.00 to 6.52; with TYK2 Pseudokinase (JH2) [3], 6.52 to 7.52. Further, the negative-log IC50 (pIC50) in assay [4] was 6.52 to 7.52; on JAK2-JH1 it was under 6.00.
Consider `[2H]C([2H])([2H])NC(=O)c1cnc(NC(=O)C2CC2)cc1Nc1cccc2c1N(C)Cc1nccnc1-2` [Compound 8, 6-(cyclopropanecarboxamido)-N-(methyl-d3)-4-((6-methyl-5,6-dihydropyrazino[2,3-c]quinolin-7-yl)amino)nicotinamide], for which the pIC50 at JAK3-JH1 was under 6.00; against JAK1-JH1, under 6.00; on TYK2-JH1, under 6.00; in the assay with TYK2 Pseudokinase (JH2) [1] it was over 7.52; in assay [2], under 6.00; in the assay with TYK2 Pseudokinase (JH2) [3], over 7.52. Further, the results for the pIC50 (in assay [4]; against JAK2-JH1) were 6.52 to 7.52 and under 6.00, respectively.
As to `[2H]C([2H])([2H])NC(=O)c1nnc(NC(=O)C2CC2)cc1Nc1cccc2c1N(C)Cc1nccnc1-2` [Compound 16, 6-(cyclopropanecarboxamido)-N-(methyl-d3)-4-((6-methyl-5,6-dihydropyrazino[2,3-c]quinolin-7-yl)amino)pyridazine-3-carboxamide], the negative-log IC50 (pIC50) against JAK3-JH1 is under 6.00; at JAK1-JH1 it was under 6.00; at TYK2-JH1 it was under 6.00; in the assay with TYK2 Pseudokinase (JH2) [1] it was over 7.52; in assay [2] it was under 6.00; in the assay with TYK2 Pseudokinase (JH2) [3], over 7.52. For the same molecule, the pIC50 in assay [4] is 6.52 to 7.52; against JAK2-JH1 it was under 6.00.
Turning to `[2H]C([2H])([2H])NC(=O)c1cnc(NC(=O)C2CC2)cc1Nc1cccc2c1N(C([2H])([2H])[2H])Cc1nccnc1-2` [Compound 17, 6-(cyclopropanecarboxamido)-N-(methyl-d3)-4-((6-(methyl-d3)-5,6-dihydropyrazino[2,3-c]quinolin-7-yl)amino)nicotinamide], the pIC50 is under 6.00 against JAK3-JH1; under 6.00 against JAK1-JH1; under 6.00 against TYK2-JH1; over 7.52 in the assay on TYK2 Pseudokinase (JH2) [1]; under 6.00 in assay [2]; over 7.52 in the assay on TYK2 Pseudokinase (JH2) [3]. In addition, the negative-log IC50 (pIC50) is 6.52 to 7.52 in assay [4] and under 6.00 on JAK2-JH1.
As for `[2H]C([2H])([2H])NC(=O)c1nnc(NC(=O)C2CC2)cc1Nc1cccc2c1N(C([2H])([2H])[2H])Cc1nccnc1-2` [Compound 18, 6-(cyclopropanecarboxamido)-N-(methyl-d3)-4-((6-(methyl-d3)-5,6-dihydropyrazino[2,3-c]quinolin-7-yl)amino)pyridazine-3-carboxamide], the pIC50 on JAK3-JH1 was under 6.00; at JAK1-JH1, under 6.00; on TYK2-JH1, under 6.00; in the assay on TYK2 Pseudokinase (JH2) [1] it was over 7.52; in assay [2], 6.00 to 6.52; in the assay on TYK2 Pseudokinase (JH2) [3], over 7.52. Further, the pIC50 in assay [4] is 6.52 to 7.52; against JAK2-JH1, under 6.00.
As to `[2H]C([2H])([2H])NC(=O)c1nnc(NC(=O)C2CC2)cc1Nc1cccc2c1N(C)Cc1cnn(C)c(=O)c1-2` [Compound 27, 6-(cyclopropanecarboxamido)-4-((2,6-dimethyl-1-oxo-1,2,5,6-tetrahydropyridazino[4,5-c]quinolin-7-yl)amino)-N-(methyl-d3)pyridazine-3-carboxamide], the pIC50 against JAK3-JH1 was under 6.00; on JAK1-JH1, under 6.00; on TYK2-JH1 it was under 6.00; with TYK2 Pseudokinase (JH2) [1], over 7.52; in assay [2], 6.00 to 6.52; in the assay on TYK2 Pseudokinase (JH2) [3], over 7.52. Further, the pIC50 was 6.52 to 7.52 in assay [4] and under 6.00 against JAK2-JH1.
In the case of `[2H]C([2H])([2H])NC(=O)c1cnc(NC(=O)C2CC2)cc1Nc1cccc2c1N(C)Cc1cnn(C)c(=O)c1-2` [Compound 28, 6-(cyclopropanecarboxamido)-4-((2,6-dimethyl-1-oxo-1,2,5,6-tetrahydropyridazino[4,5-c]quinolin-7-yl)amino)-N-(methyl-d3)nicotinamide], the negative logarithm of the IC50 (pIC50) is under 6.00 on JAK3-JH1; under 6.00 against JAK1-JH1; under 6.00 against TYK2-JH1; over 7.52 in the assay with TYK2 Pseudokinase (JH2) [1]; under 6.00 in assay [2]; over 7.52 with TYK2 Pseudokinase (JH2) [3]. Further, the negative logarithm of the IC50 (pIC50) in assay [4] is 6.52 to 7.52; against JAK2-JH1 it was under 6.00.

Source of the values: patent publication US12600721B2, “TYK2 inhibitors and uses thereof” (Sudo Biosciences Limited, priority 2021, dated 2026).
